Earlier results as cited in patent US7943615B2, “Fused aminopiperidines as dipeptidyl peptidase-4 inhibitors for the treatment or prevention of diabetes” (Merck Sharp & Dohme Corp., priority 2005, dated 2011).

Assays:
[1] = tested on: hematopoiesis; details: mouse, cyclophosphamide-induced neutropenia
[2] = biological target: T1, DPP-4 (Homo sapiens, UniProt P27487)
T1 construct: GRF is rapidly degraded in plasma to GRF[344]

[3] = tested on: cardiac allograft; details: rats; doubled from day 7

T1 sequence (P27487 whole entry, species assumed): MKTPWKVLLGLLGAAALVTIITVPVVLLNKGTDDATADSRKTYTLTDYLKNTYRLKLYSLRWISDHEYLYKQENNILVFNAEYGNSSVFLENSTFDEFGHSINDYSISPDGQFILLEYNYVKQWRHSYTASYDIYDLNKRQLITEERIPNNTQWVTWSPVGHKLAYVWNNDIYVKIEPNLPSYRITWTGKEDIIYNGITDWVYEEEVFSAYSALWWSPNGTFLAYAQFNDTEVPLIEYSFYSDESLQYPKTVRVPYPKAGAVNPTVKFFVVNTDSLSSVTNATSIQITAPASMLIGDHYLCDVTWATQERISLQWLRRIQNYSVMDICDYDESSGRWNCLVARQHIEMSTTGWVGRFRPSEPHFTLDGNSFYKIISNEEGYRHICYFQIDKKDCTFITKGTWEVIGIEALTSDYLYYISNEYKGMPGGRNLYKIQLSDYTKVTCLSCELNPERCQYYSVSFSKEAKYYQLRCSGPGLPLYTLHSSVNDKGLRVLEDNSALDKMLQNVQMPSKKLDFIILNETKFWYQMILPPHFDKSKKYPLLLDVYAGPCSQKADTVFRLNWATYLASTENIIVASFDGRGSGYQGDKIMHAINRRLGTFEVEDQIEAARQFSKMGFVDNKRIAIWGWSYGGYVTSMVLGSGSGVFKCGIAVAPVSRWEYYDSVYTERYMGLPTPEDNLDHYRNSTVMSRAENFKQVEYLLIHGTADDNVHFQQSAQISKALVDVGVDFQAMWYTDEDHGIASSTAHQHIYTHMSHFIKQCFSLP

CC(C)[C@H](N)C(=O)N1CCC[C@H]1B(O)O [Val-Boro-Pro]
effect on hematopoiesis [1]: stimulated hematopoiesis

diprotin A
effect on degradation of GRF in plasma [2]: prevented

CC(C)N1CCC(c2ccccc2)(c2ccccc2)CC1 [Prodipine, Pro-Pro-diphenyl-phosphonate]
cardiac allograft survival [3]: 14 day
